Calls of active or inactive are those of the source.
Key:
[1] = molecular target: T1, Replicative DNA helicase DnaB (Mycobacterium tuberculosis, UniProt P9WMR3); test: DnaB intein splicing inhibitors, dose response, biochemical, cell-free fluorescence (AID 449749); assay type: functional
T1 sequence (P9WMR3 whole entry): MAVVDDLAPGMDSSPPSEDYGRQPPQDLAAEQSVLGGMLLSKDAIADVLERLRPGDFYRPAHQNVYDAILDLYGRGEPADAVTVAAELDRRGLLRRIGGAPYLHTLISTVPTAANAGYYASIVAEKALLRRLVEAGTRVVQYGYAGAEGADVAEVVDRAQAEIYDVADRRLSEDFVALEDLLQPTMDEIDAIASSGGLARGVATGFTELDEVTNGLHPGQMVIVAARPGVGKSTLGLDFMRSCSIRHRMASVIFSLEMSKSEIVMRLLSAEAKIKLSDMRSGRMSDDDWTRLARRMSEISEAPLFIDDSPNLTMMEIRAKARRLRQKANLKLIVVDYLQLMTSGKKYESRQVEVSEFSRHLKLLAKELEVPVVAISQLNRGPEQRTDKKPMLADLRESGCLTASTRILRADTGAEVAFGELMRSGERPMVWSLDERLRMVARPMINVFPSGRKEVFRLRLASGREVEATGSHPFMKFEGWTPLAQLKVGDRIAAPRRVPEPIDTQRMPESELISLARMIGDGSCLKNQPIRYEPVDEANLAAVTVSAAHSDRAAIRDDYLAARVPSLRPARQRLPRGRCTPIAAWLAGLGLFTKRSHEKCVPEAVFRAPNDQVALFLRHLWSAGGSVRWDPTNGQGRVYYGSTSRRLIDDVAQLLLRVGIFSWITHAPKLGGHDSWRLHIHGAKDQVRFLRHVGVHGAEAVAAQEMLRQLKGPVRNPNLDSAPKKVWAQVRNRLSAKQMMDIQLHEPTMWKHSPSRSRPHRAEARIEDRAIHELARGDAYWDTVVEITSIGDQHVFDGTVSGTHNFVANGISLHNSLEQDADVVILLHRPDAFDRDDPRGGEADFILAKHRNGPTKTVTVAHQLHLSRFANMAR

[2] = molecular target: Fibroblast growth factor receptor 1 (Homo sapiens, UniProt P11362); assay type: functional
Chain of Fibroblast growth factor receptor 1 (P11362 whole entry): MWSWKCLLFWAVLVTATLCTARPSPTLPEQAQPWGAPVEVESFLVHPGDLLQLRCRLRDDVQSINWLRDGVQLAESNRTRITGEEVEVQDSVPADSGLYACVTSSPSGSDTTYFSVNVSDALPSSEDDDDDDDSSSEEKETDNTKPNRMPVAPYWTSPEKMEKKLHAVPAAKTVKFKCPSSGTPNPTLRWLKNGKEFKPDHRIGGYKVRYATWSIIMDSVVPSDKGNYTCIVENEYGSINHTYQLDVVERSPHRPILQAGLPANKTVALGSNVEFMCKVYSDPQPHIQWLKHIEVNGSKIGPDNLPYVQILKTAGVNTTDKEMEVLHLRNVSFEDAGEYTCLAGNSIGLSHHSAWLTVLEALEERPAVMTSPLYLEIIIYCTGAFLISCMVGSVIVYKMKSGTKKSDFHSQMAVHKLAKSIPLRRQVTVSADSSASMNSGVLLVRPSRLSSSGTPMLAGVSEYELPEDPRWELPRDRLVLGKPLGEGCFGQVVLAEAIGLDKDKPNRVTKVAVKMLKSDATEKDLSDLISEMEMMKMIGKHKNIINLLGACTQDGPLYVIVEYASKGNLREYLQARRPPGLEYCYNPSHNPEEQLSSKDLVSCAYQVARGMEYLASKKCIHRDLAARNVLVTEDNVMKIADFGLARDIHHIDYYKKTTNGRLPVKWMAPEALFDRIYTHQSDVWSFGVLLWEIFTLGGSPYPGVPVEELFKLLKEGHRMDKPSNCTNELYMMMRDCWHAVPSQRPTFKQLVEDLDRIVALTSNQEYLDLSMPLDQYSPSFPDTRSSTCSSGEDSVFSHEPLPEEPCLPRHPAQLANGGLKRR

[3] = molecular target: T2, Tyrosine-protein kinase JAK3 (Homo sapiens, UniProt P52333); assay type: functional
T2 sequence (P52333 whole entry): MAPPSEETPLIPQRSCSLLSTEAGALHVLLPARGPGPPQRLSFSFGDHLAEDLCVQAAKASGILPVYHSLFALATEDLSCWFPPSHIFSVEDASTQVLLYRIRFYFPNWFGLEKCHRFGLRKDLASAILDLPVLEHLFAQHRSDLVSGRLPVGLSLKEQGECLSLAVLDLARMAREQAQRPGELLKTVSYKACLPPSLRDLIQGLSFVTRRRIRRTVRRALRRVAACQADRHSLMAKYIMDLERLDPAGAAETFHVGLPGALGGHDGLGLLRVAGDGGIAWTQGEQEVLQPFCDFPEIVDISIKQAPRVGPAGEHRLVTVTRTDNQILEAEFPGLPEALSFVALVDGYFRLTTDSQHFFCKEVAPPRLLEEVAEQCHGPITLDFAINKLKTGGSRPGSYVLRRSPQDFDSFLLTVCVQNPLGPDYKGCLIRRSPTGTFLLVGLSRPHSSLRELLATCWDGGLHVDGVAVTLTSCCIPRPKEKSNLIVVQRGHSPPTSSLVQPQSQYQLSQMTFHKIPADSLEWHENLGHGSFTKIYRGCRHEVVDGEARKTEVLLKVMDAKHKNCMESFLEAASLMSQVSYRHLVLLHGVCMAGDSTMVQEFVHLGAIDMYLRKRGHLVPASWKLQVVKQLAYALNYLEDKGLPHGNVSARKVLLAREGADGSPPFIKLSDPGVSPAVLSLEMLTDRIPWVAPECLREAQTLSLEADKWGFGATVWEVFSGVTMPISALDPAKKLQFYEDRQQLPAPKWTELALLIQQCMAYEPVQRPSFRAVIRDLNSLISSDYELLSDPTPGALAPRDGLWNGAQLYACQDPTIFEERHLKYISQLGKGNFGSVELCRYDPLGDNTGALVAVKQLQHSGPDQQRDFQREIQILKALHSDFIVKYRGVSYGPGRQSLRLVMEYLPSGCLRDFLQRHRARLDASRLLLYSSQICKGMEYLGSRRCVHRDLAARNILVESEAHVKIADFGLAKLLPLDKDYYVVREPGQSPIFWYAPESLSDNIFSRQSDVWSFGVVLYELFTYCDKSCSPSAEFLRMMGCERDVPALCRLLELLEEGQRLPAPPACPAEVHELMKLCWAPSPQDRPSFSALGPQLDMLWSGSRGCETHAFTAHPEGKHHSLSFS

[4] = molecular target: ALK tyrosine kinase receptor (Homo sapiens, UniProt Q9UM73); assay type: functional;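 further: ALK tested as one member of a kinase panel screen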
Chain of ALK tyrosine kinase receptor (Q9UM73 whole entry): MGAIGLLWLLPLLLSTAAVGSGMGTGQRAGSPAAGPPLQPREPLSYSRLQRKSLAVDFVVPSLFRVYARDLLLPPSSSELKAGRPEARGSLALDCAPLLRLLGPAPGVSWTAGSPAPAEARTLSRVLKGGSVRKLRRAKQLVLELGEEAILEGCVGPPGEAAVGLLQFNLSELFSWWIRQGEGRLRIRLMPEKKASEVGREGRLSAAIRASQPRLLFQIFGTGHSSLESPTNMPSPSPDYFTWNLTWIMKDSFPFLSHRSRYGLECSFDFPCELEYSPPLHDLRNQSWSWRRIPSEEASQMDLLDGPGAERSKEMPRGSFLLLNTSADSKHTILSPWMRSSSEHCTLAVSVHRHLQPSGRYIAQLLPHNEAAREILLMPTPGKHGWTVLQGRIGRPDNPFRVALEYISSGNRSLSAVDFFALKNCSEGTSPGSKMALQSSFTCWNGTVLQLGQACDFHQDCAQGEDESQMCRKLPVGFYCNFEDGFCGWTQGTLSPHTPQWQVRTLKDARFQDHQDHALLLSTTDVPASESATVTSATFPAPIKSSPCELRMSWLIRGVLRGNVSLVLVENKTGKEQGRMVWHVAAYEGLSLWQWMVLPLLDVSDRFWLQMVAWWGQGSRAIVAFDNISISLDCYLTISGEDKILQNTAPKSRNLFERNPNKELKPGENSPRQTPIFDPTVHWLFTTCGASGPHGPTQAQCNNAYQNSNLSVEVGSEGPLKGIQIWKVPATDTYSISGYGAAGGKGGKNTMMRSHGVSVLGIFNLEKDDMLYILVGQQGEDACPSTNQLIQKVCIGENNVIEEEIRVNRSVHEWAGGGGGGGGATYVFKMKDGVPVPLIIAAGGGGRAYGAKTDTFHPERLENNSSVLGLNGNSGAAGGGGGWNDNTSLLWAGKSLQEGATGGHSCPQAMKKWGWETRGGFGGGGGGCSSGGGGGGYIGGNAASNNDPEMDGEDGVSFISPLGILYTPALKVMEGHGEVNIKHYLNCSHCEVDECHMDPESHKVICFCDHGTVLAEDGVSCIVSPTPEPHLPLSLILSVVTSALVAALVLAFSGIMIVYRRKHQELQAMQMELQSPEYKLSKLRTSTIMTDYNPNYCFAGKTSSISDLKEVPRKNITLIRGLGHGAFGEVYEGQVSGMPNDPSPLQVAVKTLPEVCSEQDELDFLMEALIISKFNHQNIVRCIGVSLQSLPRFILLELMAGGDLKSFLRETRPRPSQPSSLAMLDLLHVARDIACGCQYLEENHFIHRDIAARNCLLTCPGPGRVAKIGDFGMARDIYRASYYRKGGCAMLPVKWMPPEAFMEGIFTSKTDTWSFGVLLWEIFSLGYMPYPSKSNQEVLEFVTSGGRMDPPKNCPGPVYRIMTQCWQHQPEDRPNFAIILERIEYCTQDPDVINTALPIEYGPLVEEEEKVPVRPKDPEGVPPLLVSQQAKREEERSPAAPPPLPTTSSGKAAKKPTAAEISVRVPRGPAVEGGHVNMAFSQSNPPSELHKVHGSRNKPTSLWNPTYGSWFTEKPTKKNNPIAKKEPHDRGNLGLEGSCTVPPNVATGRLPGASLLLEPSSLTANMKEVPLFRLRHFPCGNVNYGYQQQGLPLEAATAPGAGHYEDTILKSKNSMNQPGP

[5] = molecular target: cAMP-dependent protein kinase catalytic subunit PRKX (Homo sapiens, UniProt P51817); assay type: functional
Chain of cAMP-dependent protein kinase catalytic subunit PRKX (P51817 whole entry): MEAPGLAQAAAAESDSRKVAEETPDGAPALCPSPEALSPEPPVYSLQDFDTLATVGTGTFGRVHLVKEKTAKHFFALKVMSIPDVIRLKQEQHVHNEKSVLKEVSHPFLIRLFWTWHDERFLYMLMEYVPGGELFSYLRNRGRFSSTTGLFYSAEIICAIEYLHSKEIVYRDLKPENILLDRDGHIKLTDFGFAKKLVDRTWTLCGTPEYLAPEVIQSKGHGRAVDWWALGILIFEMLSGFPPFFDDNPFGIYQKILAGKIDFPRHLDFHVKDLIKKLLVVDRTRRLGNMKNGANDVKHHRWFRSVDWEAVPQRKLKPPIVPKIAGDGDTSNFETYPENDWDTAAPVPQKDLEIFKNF

[6] = molecular target: Cyclin-dependent kinase 7 (Homo sapiens, UniProt P50613); assay type: functional;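 further: value comes from a kinome-wide kinase profiling panel in which CDK7 is one member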
Chain of Cyclin-dependent kinase 7 (P50613 whole entry): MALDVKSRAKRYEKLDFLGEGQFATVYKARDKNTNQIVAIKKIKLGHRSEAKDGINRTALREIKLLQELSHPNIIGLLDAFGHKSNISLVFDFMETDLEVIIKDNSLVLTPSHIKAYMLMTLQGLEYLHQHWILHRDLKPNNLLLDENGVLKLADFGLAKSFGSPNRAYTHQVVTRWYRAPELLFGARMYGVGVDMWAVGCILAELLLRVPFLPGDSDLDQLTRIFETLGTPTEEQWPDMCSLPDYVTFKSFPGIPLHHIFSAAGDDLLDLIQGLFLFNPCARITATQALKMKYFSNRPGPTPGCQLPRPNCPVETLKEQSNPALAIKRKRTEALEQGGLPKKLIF

[7] = molecular target: Mitogen-activated protein kinase kinase kinase kinase 4 (Homo sapiens, UniProt O95819); assay type: functional
Chain of Mitogen-activated protein kinase kinase kinase kinase 4 (O95819 whole entry): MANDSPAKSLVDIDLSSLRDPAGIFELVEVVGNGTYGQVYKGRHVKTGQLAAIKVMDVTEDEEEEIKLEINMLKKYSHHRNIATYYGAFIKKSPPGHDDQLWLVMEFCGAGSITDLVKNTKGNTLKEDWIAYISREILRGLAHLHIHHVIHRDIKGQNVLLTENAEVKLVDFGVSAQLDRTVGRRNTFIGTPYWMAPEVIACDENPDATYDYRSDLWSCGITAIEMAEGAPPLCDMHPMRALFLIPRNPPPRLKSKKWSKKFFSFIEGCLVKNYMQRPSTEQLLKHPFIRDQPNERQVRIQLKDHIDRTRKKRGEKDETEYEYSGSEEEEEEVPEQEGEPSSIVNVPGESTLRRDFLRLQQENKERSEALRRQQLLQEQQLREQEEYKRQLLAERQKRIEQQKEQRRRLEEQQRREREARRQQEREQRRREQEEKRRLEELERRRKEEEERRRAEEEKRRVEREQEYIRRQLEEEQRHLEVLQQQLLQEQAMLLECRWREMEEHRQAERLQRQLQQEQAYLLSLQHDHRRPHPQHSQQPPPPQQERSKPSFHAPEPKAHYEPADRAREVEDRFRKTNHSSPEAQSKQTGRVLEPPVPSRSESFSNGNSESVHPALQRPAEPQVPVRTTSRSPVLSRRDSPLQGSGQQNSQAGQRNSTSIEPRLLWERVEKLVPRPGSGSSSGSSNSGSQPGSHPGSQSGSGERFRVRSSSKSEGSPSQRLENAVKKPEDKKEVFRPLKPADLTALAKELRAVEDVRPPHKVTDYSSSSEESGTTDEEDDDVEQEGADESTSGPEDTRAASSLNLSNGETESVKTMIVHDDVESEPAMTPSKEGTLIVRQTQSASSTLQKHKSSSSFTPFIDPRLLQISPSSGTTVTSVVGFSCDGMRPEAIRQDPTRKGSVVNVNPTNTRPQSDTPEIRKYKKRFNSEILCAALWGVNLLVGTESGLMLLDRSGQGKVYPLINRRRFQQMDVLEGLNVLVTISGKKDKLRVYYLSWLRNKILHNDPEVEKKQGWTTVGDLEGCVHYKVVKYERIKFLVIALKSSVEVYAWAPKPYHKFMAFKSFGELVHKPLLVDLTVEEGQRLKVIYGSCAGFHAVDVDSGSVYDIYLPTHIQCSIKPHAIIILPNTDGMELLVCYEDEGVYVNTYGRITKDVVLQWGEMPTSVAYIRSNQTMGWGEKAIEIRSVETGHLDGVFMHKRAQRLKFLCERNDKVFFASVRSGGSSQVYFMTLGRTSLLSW

Streptokinase A = molecular target: T3, Streptokinase A (Streptococcus pyogenes serotype M1, UniProt P10520); test: viability-normalized secreted streptokinase activity reduction – plasminogen activation absorbance, OD405, dose response (AID 1914); assay type: functional, Streptococcus pyogenes M1 GAS;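 further: secreted streptokinase activity via plasminogen activation per viability signal from cell pellet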
T3 sequence (P10520 whole entry): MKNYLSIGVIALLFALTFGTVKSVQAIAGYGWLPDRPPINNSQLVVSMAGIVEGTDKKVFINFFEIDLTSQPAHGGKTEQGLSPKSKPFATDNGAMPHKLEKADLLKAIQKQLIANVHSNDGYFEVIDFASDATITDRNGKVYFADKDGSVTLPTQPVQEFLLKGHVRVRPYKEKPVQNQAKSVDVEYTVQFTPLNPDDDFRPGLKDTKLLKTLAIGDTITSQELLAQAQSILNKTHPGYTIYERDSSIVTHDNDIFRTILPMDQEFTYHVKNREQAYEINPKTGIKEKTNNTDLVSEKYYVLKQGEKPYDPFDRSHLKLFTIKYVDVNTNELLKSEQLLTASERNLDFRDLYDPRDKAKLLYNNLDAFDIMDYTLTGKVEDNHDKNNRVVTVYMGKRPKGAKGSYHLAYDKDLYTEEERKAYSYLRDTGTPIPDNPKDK

In the case of `Cc1ccc(NC(=O)COc2cccc(/C=C3\SC(=S)N(CCC(=O)O)C3=O)c2)cc1Cl`, the AC50 [1] is reported as 6.13 µM (active).
In the case of `COc1cccc(C(C)NC(=O)c2ccc(-c3ccncc3)s2)c1` (stereo not drawn), the Ki [2] is reported as > 3.98 µM (inactive), the Ki [3] is reported as > 5.01 µM (inactive) and the Ki [4] is reported as > 6.31 µM (inactive). The Ki [5] was 2 µM (active), the Ki [6] was > 3.98 µM (inactive) and the Ki [7] was 5.01 µM (active).
For `O=Nc1c(-c2c(O)[nH]c3cc(Br)ccc23)[nH]c2ccccc12`, the EC50 (Streptokinase A) was 44.9 µM (active).

Reference: ChEMBL document CHEMBL1201862, “PubChem BioAssay data set” (2004)
